PMC12690121 (Nature Communications, 2025)

T1: ArnC (Salmonella enterica, UniProt O52324)
T1 sequence (O52324 1-327): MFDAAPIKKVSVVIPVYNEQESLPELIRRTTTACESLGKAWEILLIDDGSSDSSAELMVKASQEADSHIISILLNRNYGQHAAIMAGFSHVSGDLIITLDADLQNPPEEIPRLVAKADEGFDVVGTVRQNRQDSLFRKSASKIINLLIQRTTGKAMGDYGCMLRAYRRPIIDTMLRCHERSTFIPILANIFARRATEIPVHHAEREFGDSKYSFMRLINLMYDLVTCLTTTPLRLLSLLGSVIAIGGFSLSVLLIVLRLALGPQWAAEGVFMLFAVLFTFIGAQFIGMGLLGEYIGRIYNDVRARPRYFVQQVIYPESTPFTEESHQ

B1: ArnC from Salmonella enterica (ArnCSe) (enzyme)
chain: MFDAAPIKKVSVVIPVYNEQESLPELIRRTTTACESLGKAWEILLIDDGSSDSSAELMVKASQEADSHIISILLNRNYGQHAAIMAGFSHVSGDLIITLDADLQNPPEEIPRLVAKADEGFDVVGTVRQNRQDSLFRKSASKIINLLIQRTTGKAMGDYGCMLRAYRRPIIDTMLRCHERSTFIPILANIFARRATEIPVHHAEREFGDSKYSFMRLINLMYDLVTCLTTTPLRLLSLLGSVIAIGGFSLSVLLIVLRLALGPQWAAEGVFMLFAVLFTFIGAQFIGMGLLGEYIGRIYNDVRARPRYFVQQVIYPESTPFTEESHQ

Experiments:
ArnC = biological target: T1, ArnC; assay: MST; format: binding
cryo-EM structure = biological target: the molecule itself; assay: cryo-EM structure

| Molecule | Kd (ArnC) | stoichiometry N (cryo-EM structure) |
| --- | --- | --- |
| O=c1ccn([C@@H]2O[C@H](COP(=O)(O)OP(=O)(O)O)[C@@H](O)[C@H]2O)c(=O)[nH]1 [UDP] | 8.5 µM | – |
| B1 | – | 4 |
